Laboratory results as given in patent US8242118B2, “Arylsulfonamide derivatives for use as CCR3 antagonists in the treatment of inflammatory and immunological disorders” (Axikin Pharmaceuticals Inc., priority 2001, dated 2012).
pIC50: −log10 of the molar value.

Tests used:
Human CCR3 = target: T1, Human CCR3 (Homo sapiens, UniProt P51677); test: Receptor binding assay (RBA), [125I]-eotaxin; details: human CCR3-transformed K562 cells, 0.1 nM [125I]-eotaxin; compounds of about 40 to 90% purity; read-out: Activity grade RBA (IC50 class)
T1 construct: The cloned CCR3 cDNA was constructed with pcDNA3 vector and transfected into a IC562 cell line; expressed in transfected cells
T1 sequence (P51677 1-355): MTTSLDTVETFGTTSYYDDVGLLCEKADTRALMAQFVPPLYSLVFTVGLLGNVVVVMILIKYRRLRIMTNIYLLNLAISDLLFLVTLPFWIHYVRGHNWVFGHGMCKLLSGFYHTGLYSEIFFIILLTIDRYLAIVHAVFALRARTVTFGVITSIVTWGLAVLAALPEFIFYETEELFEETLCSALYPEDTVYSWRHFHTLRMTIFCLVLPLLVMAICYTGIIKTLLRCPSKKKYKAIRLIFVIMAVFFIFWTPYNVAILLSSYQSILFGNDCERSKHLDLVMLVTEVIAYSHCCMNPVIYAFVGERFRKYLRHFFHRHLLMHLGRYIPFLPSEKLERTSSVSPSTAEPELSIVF
Protocol: [Determination of IC50 Values of Compounds in Receptor Binding Assay]
• Human CCR3-transformed K562 cells were used. The cloned CCR3 cDNA was constructed with pcDNA3 vector and transfected into a IC562 cell line. The human CCR3-transformed K562 cells were maintained in RPMI-1640 (Cat.#22400-089, Life Technologies) supplemented with 10% FCS (Cat.#A-1115-L, Hyclone), 55 μM 2-mercaptoethanol (Cat.#21985-023, Life Technologies), 1 mM sodium pyruvate (Cat.#11360-070, Life Technologies), 100 units/ml of penicillin G and 100 μg/ml of streptomycin (Cat.#15140-122, Life Technologies), and 0.4 mg/ml of Geneticin (Cat.#10131-035, Life Technologies)(hereinafter called “culture medium”). Before the receptor binding assay, cells were pretreated with 5 mM sodium butyrate (Cat.#193-01522, Wako)-containing the culture medium (2×10^5 cells/ml) for 20-24 hours to increase the expression of CCR3. (2) Receptor Binding Assay (RBA) • Butyrate-pretreated cells, suspended in binding buffer (25 mM HEPES pH 7.6, 1 mM CaCl2, 5 mM MgCl2, 0.5% BSA, 0.1% NaN3) at a cell density of 2×10^6 cells/ml, were added into 60 μl/well in the 96-well round bottom polypropylene plate (Cat.#3365, Costar). Compounds, diluted with the binding buffer (4-times higher concentration of the final concentration), were added into 30 μl/well in the polypropylene plate. [^125I]-labeled human eotaxin (Cat.#IM290, Amersham Pharmacia Biotech), diluted with the binding buffer at the concentration of 0.4 nM (final concentration; 0.1 nM), was added into 30 μl/well in the polypropylene plate. Total 120 μl/well of binding reaction mixture (60 μl/well of cell suspension, 30 μl/well of compound solution, and 30 μl/well of [^125I]-labeled eotaxin) were incubated in the polypropylene plate for 1 hour at room temperature after the incubation, 100 μl/well of the reaction mixture was transferred to a filtration plate (Cat.#MAFB-N0B, Millipore), and washed with the washing buffer (25 mM HEPES pH 7.6, 1 mM CaCl2, 5 mM MgCl2, 0.5% BSA, 0.1% NaN3, 0.5 M NaCl) twice. The 96-well filtration plate was pretreated with 100 μl/well of 0.5% polyethylenimine (Cat.#P-3143, Sigma) for 2-4 hours at room temperature and washed with the washing buffer twice before use. The non-specific binding was determined by parallel incubation in the presence of 500 nM of non-labeled eotaxin (Cat.#23209, Genzyme Techne). The radioactivities remained on the filter were measured by liquid scintillation counter (TopCount™, Packard) after an addition of 45 μl/well of scintillant (Microscint20, Cat.#6013621, Packard). The inhibition percent at each concentration of compound was calculated, and IC50 values were determined from the inhibition curve. [Determination of IC50 Values of Compounds in Calcium Mobilization Assay] (IC50 Ca2+) (1) Cell • Human CCR3-transformed K562 cells were used. The human CCR3-transformed K562 cells were maintained in RPMI-1640 supplemented with 10% FCS, 55 μM 2-mercaptoethanol (Cat.#21985-023, Life Technologies), 1 mM sodium pyruvate, 100 units/ml of penicillin G and 100 μg/ml of streptomycin and 0.4 mg/ml of Geneticin. Before the calcium mobilization assay, cells were pretreated with 5 mM sodium butyrate-containing the culture medium (2×10^5 cells/ml) for 20-24 hours to increase the expression of CCR3. (2) Calcium Mobilization Assay • Butyrate-pretreated cells were loaded with Fluo-3AM (Cat.#F-1242, Molecular Probes) in loading buffer (Hanks' solution Cat.#05906 Nissui, 20 mM HEPES pH 7.6, 0.1% BSA, 1 mM probenecid Cat.#P-8761 Sigma, 1 μM Fluo-3AM, 0.01% pluronic F-127 Cat.#P-6866 Molecular Probes) at a cell density of 1×10^7 cells/ml. Then, cells were washed with calcium assay buffer (Hanks' solution Cat.#05906 Nissui, 20 mM HEPES pH 7.6, 0.1% BSA, 1 mM Probenecid Cat.#P-8761 Sigma). The cell suspension (3.3×10^6 cells/ml) was added into 60 μl/well in the 96-well clear bottom black plate (Cat.#3904, Costar). […]

Row | Structure (SMILES) | pIC50 (Human CCR3) | melting point
1 | Cl.O=[N+]([O-])c1ccc(Oc2ccccc2Cl)c(S(=O)(=O)N2CCNCC2)c1 [Example 1-28] | 5.00 to 6.00 | 166 to 169 °C
2 | CC(=O)c1ccccc1Oc1ccc([N+](=O)[O-])cc1S(=O)(=O)N1CCNCC1.Cl [Example 1-30] | < 5.00 | 194 to 200 °C
3 | CC(=O)c1cccc(Oc2ccc([N+](=O)[O-])cc2S(=O)(=O)N2CCNCC2)c1.Cl [Example 1-31] | < 5.00 | 77 °C
4 | CN(C)c1cccc(Oc2ccc([N+](=O)[O-])cc2S(=O)(=O)N2CCNCC2)c1.Cl [Example 1-32] | < 5.00 | 182 °C
5 | Cl.O=[N+]([O-])c1ccc(Oc2cccc(C(F)(F)F)c2)c(S(=O)(=O)N2CCNCC2)c1 [Example 1-34] | > 6.00 | 128 °C
6 | Cc1cc(C)cc(Oc2ccc(S(C)(=O)=O)cc2S(=O)(=O)N2CCNCC2)c1.Cl [Example 1-35] | 5.00 to 6.00 | 267 to 268 °C
7 | CC(C)(C)c1cccc(Oc2ccc([N+](=O)[O-])cc2S(=O)(=O)N2CCNCC2)c1.Cl [Example 1-36] | 5.00 to 6.00 | 155 °C
8 | Cl.O=[N+]([O-])c1cccc(Oc2ccc([N+](=O)[O-])cc2S(=O)(=O)N2CCNCC2)c1 [Example 1-38] | 5.00 to 6.00 | 150 °C
9 | Cc1cc(C)cc(Oc2ccccc2S(=O)(=O)N2CCNCC2)c1.Cl [Example 1-41] | < 5.00 | 205 to 207 °C
10 | Cc1cc(C)cc(Oc2ccc(C(=O)N3CCNCC3)cc2S(=O)(=O)N2CCNCC2)c1.Cl.Cl [Example 1-42] | < 5.00 | 288 to 290 °C
11 | Cc1cc(C)cc(Oc2cc(C)c([N+](=O)[O-])cc2S(=O)(=O)N2CCNCC2)c1.Cl [Example 1-44] | 5.00 to 6.00 | 159 °C
12 | Cc1cc(C)cc(Oc2cc(C(F)(F)F)ccc2S(=O)(=O)N2CCNCC2)c1.Cl [Example 1-46] | < 5.00 | 250 to 251 °C
13 | COc1cc(Oc2cc(C)cc(C)c2)c(S(=O)(=O)N2CCNCC2)cc1[N+](=O)[O-].Cl [Example 1-47] | 5.00 to 6.00 | 188 °C
14 | Cl.O=S(=O)(c1cc(Br)ccc1Oc1cc(Cl)cc(Cl)c1)N1CCNCC1 [Example 1-57] | > 6.00 | 269 to 271 °C
15 | Cc1cc(Oc2ccc([N+](=O)[O-])cc2S(=O)(=O)N2CCNCC2)ccc1Cl.Cl [Example 1-60] | 5.00 to 6.00 | 204 °C
16 | Cc1ccc(C)c(Oc2ccc([N+](=O)[O-])cc2S(=O)(=O)N2CCNCC2)c1C.Cl [Example 1-61] | 5.00 to 6.00 | 220 °C
17 | Cc1cccc(Oc2ccc([N+](=O)[O-])cc2S(=O)(=O)N2CCNCC2)c1C.Cl [Example 1-62] | > 6.00 | 142 °C
18 | Cc1ccc(Oc2ccc([N+](=O)[O-])cc2S(=O)(=O)N2CCNCC2)cc1C.Cl [Example 1-63] | 5.00 to 6.00 | 142 °C
19 | Cc1ccc(C)c(Oc2ccc([N+](=O)[O-])cc2S(=O)(=O)N2CCNCC2)c1.Cl [Example 1-64] | > 6.00 | 141 °C
20 | Cc1cc(C)c(C)c(Oc2ccc([N+](=O)[O-])cc2S(=O)(=O)N2CCNCC2)c1.Cl [Example 1-65] | > 6.00 | 187 °C
21 | Cc1ccc(C(C)C)c(Oc2ccc([N+](=O)[O-])cc2S(=O)(=O)N2CCNCC2)c1.Cl [Example 1-66] | 5.00 to 6.00 | 193 °C
22 | Cl.O=[N+]([O-])c1ccc(Oc2c(F)c(F)cc(F)c2F)c(S(=O)(=O)N2CCNCC2)c1 [Example 1-74] | > 6.00 | 104 °C
23 | O=[N+]([O-])c1ccc(Oc2cc(Br)cc(Br)c2)c(S(=O)(=O)N2CCNCC2)c1 [Example 1-76] | > 6.00 | 205 °C
24 | Cl.O=[N+]([O-])c1ccc(Oc2cc(Cl)cc(Cl)c2F)c(S(=O)(=O)N2CCNCC2)c1 [Example 1-77] | > 6.00 | 263 °C
25 | Cc1cc(Oc2ccc([N+](=O)[O-])cc2S(=O)(=O)N2CCNCC2)cc(C)c1Cl [Example 1-79] | > 6.00 | 178 to 179 °C
26 | Cc1ccc(Cl)c(Oc2ccc([N+](=O)[O-])cc2S(=O)(=O)N2CCNCC2)c1 [Example 1-80] | > 6.00 | 166 to 167 °C
27 | O=[N+]([O-])c1ccc(Oc2cc(Cl)ccc2Cl)c(S(=O)(=O)N2CCNCC2)c1 [Example 1-84] | > 6.00 | 179 to 180 °C

More lines, now with the values ahead:

Row | pIC50 (Human CCR3) | melting point | Structure (SMILES)
28 | > 6.00 | 142 °C | COc1ccccc1Oc1ccc([N+](=O)[O-])cc1S(=O)(=O)N1CCNCC1.Cl [Example 1-27]
29 | > 6.00 | 260 to 264 °C | Cl.O=[N+]([O-])c1ccc(Oc2cc(Cl)cc(Cl)c2)c(S(=O)(=O)N2CCNCC2)c1 [Example 1-33]
30 | > 6.00 | 113 °C | COc1cc(C)cc(Oc2ccc([N+](=O)[O-])cc2S(=O)(=O)N2CCNCC2)c1.Cl [Example 1-37]
31 | > 6.00 | 119 °C | Cl.O=[N+]([O-])c1ccc(Oc2cccc(Br)c2)c(S(=O)(=O)N2CCNCC2)c1 [Example 1-39]
32 | > 6.00 | 140 to 150 °C | CCCCc1ccccc1Oc1ccc([N+](=O)[O-])cc1S(=O)(=O)N1CCNCC1.Cl [Example 1-40]
33 | > 6.00 | 238 to 239 °C | Cc1cc(C)cc(Oc2ccc(C(F)(F)F)cc2S(=O)(=O)N2CCNCC2)c1.Cl [Example 1-43]
34 | > 6.00 | 168 °C | Cc1cc(Oc2cc(Cl)cc(Cl)c2)c(S(=O)(=O)N2CCNCC2)cc1[N+](=O)[O-].Cl [Example 1-45]
35 | > 6.00 | 170 °C | O=[N+]([O-])c1ccc(Oc2cc(Cl)cc(Cl)c2)c(S(=O)(=O)N2CC3CCCNC3C2)c1 (stereo not shown) [Example 1-48]
36 | > 6.00 | 145 °C | Cl.O=S(=O)(c1cc(F)ccc1Oc1cc(Cl)cc(Cl)c1)N1CCNCC1 [Example 1-51]
37 | > 6.00 | 159 °C | Cc1cc(C)cc(Oc2ccc([N+](=O)[O-])cc2S(=O)(=O)N2CC(C)NCC2C)c1.Cl (stereo not shown) [Example 1-54]
38 | > 6.00 | 255 to 257 °C | Cl.O=S(=O)(c1cc(Cl)ccc1Oc1cc(Cl)cc(Cl)c1)N1CCNCC1 [Example 1-56]
